Laboratory results taken from PubChem BioAssay (NCI).
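Results reflect a 48-hour exposure of cells in 96-well plates to compound at five concentrations. TGI: concentration producing complete growth inhibition.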

Key:
Experiment in all cases: NCI-60 cell line screen, 48 h
PC-3 prostate = test system: PC-3 prostate
OVCAR-8 ovarian = test system: OVCAR-8 ovarian
HS 578T breast = test system: HS 578T breast
SK-MEL-2 melanoma = test system: SK-MEL-2 melanoma
HCT-116 colon = test system: HCT-116 colon
KM12 colon = test system: KM12 colon
HT29 colon = test system: HT29 colon
OVCAR-5 ovarian = test system: OVCAR-5 ovarian
SNB-19 CNS = test system: SNB-19 CNS
MALME-3M melanoma = test system: MALME-3M melanoma
CAKI-1 renal = test system: CAKI-1 renal
RPMI-8226 leukemia = test system: RPMI-8226 leukemia

Measured: TGI

COc1cc2c(cc1C)NC(=O)/C2=C/c1c(Cl)[nH]c2cc(C)c(OC)cc12
22.1 µM: SK-MEL-2 melanoma
21.2 µM: CAKI-1 renal
15.5 µM: KM12 colon
24.1 µM: OVCAR-8 ovarian
21.7 µM: PC-3 prostate
20.4 µM: SNB-19 CNS
25.8 µM: OVCAR-5 ovarian
> 48.9 µM: RPMI-8226 leukemia
25.4 µM: MALME-3M melanoma
46 µM: HS 578T breast
17.6 µM: HT29 colon
18.1 µM: HCT-116 colon

COc1ccc(C2CCc3nc4nc(N)nc(N)c4cc3C2)cc1 (configuration not stated)
31.8 µM: SNB-19 CNS
42.3 µM: SK-MEL-2 melanoma
94.3 µM: HT29 colon
22.5 µM: OVCAR-8 ovarian
> 100 µM: all other assays above

CS(C)(=O)=N/C=C\C(=O)C(Cl)(Cl)Cl
> 100 µM: all assays above

O=C1CCc2c3c(c4c([nH]c5ccccc54)c2CC1)C(=O)NC3=O
18.4 µM: KM12 colon
64.1 µM: RPMI-8226 leukemia
38.2 µM: OVCAR-8 ovarian
12.6 µM: MALME-3M melanoma
12.1 µM: HT29 colon
70.6 µM: PC-3 prostate
17.1 µM: SK-MEL-2 melanoma
44.4 µM: SNB-19 CNS
21.2 µM: CAKI-1 renal
> 100 µM: all other assays above

CC1=C(C)C(=O)OC(C(C)(O)C2(O)CCC3(O)C4CC(Cl)C5(O)C(O)C=CC(=O)C5(C)C4CCC32C)C1 (configuration not stated)
47.3 µM: RPMI-8226 leukemia
> 100 µM: all other assays above

NC(=O)c1cnc2sc3ccccc3n2c1=O
> 100 µM: all assays above

O=C(N/N=C(/COc1cccc(Cl)c1)N=Cc1ccncc1)c1ccncc1
> 100 µM: all assays above

CCOC(=O)C(Cc1ccc2c(c1)CCC2)(Cc1ccc2c(c1)CCC2)C(=O)OCC
89.2 µM: MALME-3M melanoma
not listed: KM12 colon
> 100 µM: all other assays above

CN(c1c(Cl)cccc1Cl)S(=O)(=O)c1ccccc1[N+](=O)[O-]
> 100 µM: all assays above
